Test results as given in US20260356860A1, “2-SUBSTITUTED 3,4A,5,7,8,8A-HEXAHYDRO-4H-THIOPYRANO[4,3-DJPYRIMIDIN-4-ONES FOR WOUND TREATMENT” (priority 2022, published 2026).

Experiments:
Tankyrase 2 (TNKS2) = target: T1, Tankyrase 2 (TNKS2) (Homo sapiens, UniProt Q9H2K2); assay: TNK2 Binding Assay (Tankyrase 2 ribosylation, chemiluminescence); assay type: biochemical
T1 sequence (Q9H2K2 1-1166): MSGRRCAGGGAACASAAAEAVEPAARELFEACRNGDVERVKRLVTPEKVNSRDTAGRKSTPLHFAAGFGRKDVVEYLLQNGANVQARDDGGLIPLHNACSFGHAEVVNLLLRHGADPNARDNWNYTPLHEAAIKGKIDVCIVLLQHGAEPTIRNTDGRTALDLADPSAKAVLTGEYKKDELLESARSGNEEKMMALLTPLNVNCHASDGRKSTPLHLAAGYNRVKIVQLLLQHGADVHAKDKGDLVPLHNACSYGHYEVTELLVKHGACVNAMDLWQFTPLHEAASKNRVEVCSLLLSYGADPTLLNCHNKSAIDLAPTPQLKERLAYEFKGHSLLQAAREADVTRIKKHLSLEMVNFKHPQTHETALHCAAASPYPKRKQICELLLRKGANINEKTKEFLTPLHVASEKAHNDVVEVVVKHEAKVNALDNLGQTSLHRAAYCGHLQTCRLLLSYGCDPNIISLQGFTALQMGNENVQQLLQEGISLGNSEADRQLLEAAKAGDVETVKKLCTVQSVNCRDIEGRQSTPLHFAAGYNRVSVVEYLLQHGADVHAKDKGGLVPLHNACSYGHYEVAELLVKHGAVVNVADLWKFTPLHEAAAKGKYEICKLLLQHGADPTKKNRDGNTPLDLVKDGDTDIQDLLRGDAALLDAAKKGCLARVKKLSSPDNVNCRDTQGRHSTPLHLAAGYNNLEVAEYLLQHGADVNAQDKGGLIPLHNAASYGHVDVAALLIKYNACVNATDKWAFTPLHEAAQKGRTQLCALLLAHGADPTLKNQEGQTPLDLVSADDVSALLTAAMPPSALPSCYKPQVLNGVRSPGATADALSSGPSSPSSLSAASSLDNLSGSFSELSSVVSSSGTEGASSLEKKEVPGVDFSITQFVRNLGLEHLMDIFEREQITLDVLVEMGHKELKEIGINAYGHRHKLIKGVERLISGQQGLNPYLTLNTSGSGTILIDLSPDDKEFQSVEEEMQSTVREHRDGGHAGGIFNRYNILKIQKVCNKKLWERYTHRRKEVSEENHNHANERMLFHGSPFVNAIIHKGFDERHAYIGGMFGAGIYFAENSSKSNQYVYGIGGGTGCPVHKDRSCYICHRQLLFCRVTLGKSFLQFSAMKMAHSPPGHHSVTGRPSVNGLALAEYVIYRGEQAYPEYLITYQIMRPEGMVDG
Method: Tankyrase 2 assay (n=3) was performed with the following steps: step 1, coating a 96-well plate with 50 μL/well of histone solution; step 2, conducting ribosylation reaction; and step 3, detection.
Step 1: Coating a 96-Well Plate with 50 μL/Well of Histone Solution.
A 5× histone mixture was diluted 1:5 with PBS to make a 1× histone in PBS mixture. 50 μL of the histone mixture was added to each well and incubated at 4° C. overnight. The plate was washed three times using 200 μL PBST buffer (1×PBS containing 0.05% Tween*20 (polysorbate 20) per well. The plate was tapped onto a clean paper towel to remove the liquid. The wells were blocked by adding 200 μL of blocking buffer 3 to each well. The plate was incubated at room temperature for at least 90 minutes. The plate was washed three times with 200 μL PBST buffer. The plate was tapped onto a clean paper towel to remove the liquid.
A fresh solution of 10 mM DTT in water was prepared.
A master mix was prepared and delivered to each well (25 μL/well). Master mix delivered to each well: (2.5 μL of 10×PARP assay buffer (purchased from BPS Bioscience)+2.5 μL of PARP substrate mixture 2+17.5 μL of water+2.5 μL of 10 mM fresh DTT). The concentration of DTT in the master mix was 1 mM. 25 μL of master mix was added to each well.
1×PARP buffer with DTT was prepared. 10×PARP assay buffer was diluted to 1×PARP assay buffer containing DTT by adding 1 volume of 10×PARP assay buffer+1 volume of 10 mM DTT+8 volumes of water. The concentration of DTT in the 1×PARP assay buffer was 1 mM.
5 μL of a test inhibitor was added to each well labeled as “Test Inhibitor.” For the “Positive Control,” the PARP inhibitor, XAV939, was used. For the negative control, no inhibitor is added to the assay mix.
The Tankyrase 2 (TNKS2) enzyme on ice was thawed. The tube containing the enzyme was spun briefly to recover the full content of the tube. The amount of TNKS2 enzyme required for the assay was calculated and the enzyme was diluted to 0.5 ng/μL with 1×PARP assay buffer with DTT. 16) The final concentration of TNKS2 enzyme in the assay was 2 nM. The reaction was initiated by adding 10 μL of diluted TNKS2 enzyme to each well designated “Positive Control” and “Test Inhibitor.” To each well designated as “Blank,” 10 μL of 1×PARP assay buffer with DTT was added. The plate was incubated at room temperature for 1 hour. The plate was washed three times with 100 μL of PBST buffer and the plate was tapped onto a clean paper towel.
1) Streptavidin-HRP was diluted 1:50 in Blocking buffer (purchased from BPS Bioscience) 3.50 μL of diluted Streptavidin-RP was added to each well and incubated for 30 minutes at room temperature. The plate was washed three times with 100 μL of PBST buffer and tapped onto a clean paper towel. Just before use, 1 volume of ELISA ECL Substrate A and 1 volume of ELISA ECL Substrate B were mixed on ice; and 100 μL was added to each well. Immediately, the plate was read in a luminometer or microtiter-plate reader capable of reading chemiluminescence. The “Blank” value was subtracted from all other values.

[1] = tested on: HEK293 SuperTOPFlash reporter cells, Wnt promoter; assay: HEK CELL Wnt Assay (luciferase reporter); assay type: cell-based; details: for IC50: serial dilutions, with or without 50 ng/mL Wnt3a, 18 h
Method: In order to determine the effect of the compounds of Formula (I) on Wnt inhibition, an in vitro assay using HEK293 SuperTOPFlash reporter cells, with the Wnt promoter driving a luciferase reporter gene, were utilized. 40,000 HEK293 SuperTOPFlash reporter cells were seeded, per well, in a 48 well plate for 24 hours, prior to administration of serial dilutions of the compound of Formula (I) to individual wells. Serial dilutions ranging from […] to 1 nM of the compound of Formula (I) were added with or without 50 ng/mL Wnt3a (Time Biosciences) and allowed to incubate with the reporter cells for 18 hours. Reporter cells with no treatment were used as negative control.

SMILES	IC50 (Tankyrase 2 (TNKS2)) [nM]	solubility remark in HEK CELL Wnt assay [1]	IC50 [1] [nM]
O=c1[nH]c(-c2c(F)cc(-c3ccc(B(O)O)cc3)cc2F)nc2c1CSCC2 [Compound 25, (3′,5′-difluoro-4′-(4-oxo-3,5,7,8-tetrahydro-4H-thiopyrano[4,3-d]pyrimidin-2-yl)-[1,1′-biphenyl]-4-yl)boronic acid]	63		2500
CC(C)(OCCO)c1ccc(-c2ccc(-c3nc4c(c(=O)[nH]3)CSCC4)cc2)cc1 [Compound 12, 2-(4′-(2-(2-hydroxyethoxy)propan-2-yl)-[1,1′-biphenyl]-4-yl)-3,5,7,8-tetrahydro-4H-thiopyrano[4,3-d]pyrimidin-4-one]	6.5		3
O=c1[nH]c(/C=C/c2ccc(C(F)(F)F)cc2)nc2c1CSCC2 [Compound 6, (E)-2-(4-(trifluoromethyl)styryl)-3,5,7,8-tetrahydro-4H-thiopyrano[4,3-d]pyrimidin-4-one]	2500		2000

Further lines, with some results ahead:

IC50 (Tankyrase 2 (TNKS2)) [nM]	solubility remark in HEK CELL Wnt assay [1]	SMILES	IC50 [1] [nM]
21	solubility issue	O=c1[nH]c(-c2ccc(-c3cnc(OCCO)nc3)cc2)nc2c1CSCC2 [Compound 11, 2-(4-(2-(2-hydroxyethoxy)pyrimidin-5-yl)phenyl)-3,5,7,8-tetrahydro-4H-thiopyrano[4,3-d]pyrimidin-4-one]	100
3		O=c1[nH]c(-c2ccc(-c3ncc(B(O)O)cn3)cc2)nc2c1CSCC2 [Compound 24, (2-(4-(4-oxo-3,5,7,8-tetrahydro-4H-thiopyrano[4,3-d]pyrimidin-2-yl)phenyl)pyrimidin-5-yl)boronic acid]	500
